Laboratory results published in patent US8969363B2, “Heterocyclic compounds and uses thereof” (Infinity Pharmaceuticals, Inc., priority 2011, dated 2015).

What was measured:
PI3Kγ = target: T1, PI3Kγ (Homo sapiens, UniProt P48736); experiment: PI3 Kinase HTRF assay, PI3Kγ; format: biochemical; conditions: 10 μM PIP2, 10 μM ATP; 'Greater than 10 μM' and 'Greater than 1 μM to 10 μM'; read-out: PI3K γ IC50
T1 construct: purchased Millipore Corporation 14-558-K
Excerpt: (§1) A PI3-Kinase HTRF® assay kit (cat No. 33-016) purchased from Millipore Corporation was used to screen compounds provided herein. This assay used specific, high affinity binding of the GRP1 pleckstrin homology (PH) domain to PIP3, the product of a Class 1A or 1B PI3 Kinase acting on its physiological substrate PIP2. During the detection phase of the assay, a complex was generated between the GST-tagged PH domain and biotinylated short chain PIP3. The biotinylated PIP3 and the GST-tagged PH domain recruited fluorophores (Streptavidin-Allophycocyanin and Europium-labeled anti-GST respectively) to form the fluorescence resonance energy transfer (FRET) architecture, generating a stable time-resolved FRET signal. The FRET complex was disrupted in a competitive manner by non-biotinylated PIP3, a product formed in the PI3 Kinase assay.
(§2) PI3 Kinase α, β, γ and δ activity was assayed using the PI3 Kinase HTRF® assay kit (catalogue No. 33-016) purchased from Millipore Corporation. Purified recombinant PI3Kα (catalogue No. 14-602-K), PI3Kβ (catalogue No. 14-603-K), PI3Kγ (catalogue No. 14-558-K) and PI3Kδ (catalogue No. 14-604-K) were obtained from Millipore Corporation. Purified recombinant PI3K enzyme was used to catalyze the phosphorylation of phosphatidylinositol 4,5-bisphosphate (PIP2 at 10 μM) to phosphatidylinositol 3,4,5-trisphosphate (PIP3) in the presence of 10 μM ATP. The assay was carried out in 384-well format and detected using a Perkin Elmer EnVision Xcite Multilabel Reader. Emission ratios were converted into percent inhibitions and imported into GraphPad Prism software. The concentration necessary to achieve inhibition of enzyme activity by 50% (IC50) was calculated using concentrations ranging from 20 μM to 0.1 nM (12-point curve). IC50 values were determined using a nonlinear regression model available in GraphPad Prism 5. […]

PI3Kα = target: T2, PI3Kα (Homo sapiens, UniProt P42336); experiment: PI3 Kinase HTRF assay, PI3Kα; format: biochemical; conditions: 10 μM PIP2, 10 μM ATP; 'Greater than 10 μM' and 'Greater than 1 μM to 10 μM'; read-out: PI3K α IC50
T2 construct: purchased Millipore Corporation 14-602-K
Excerpt: as §1, §2

PI3Kβ = experiment: PI3 Kinase HTRF assay, PI3Kβ; format: biochemical, human; conditions: 10 μM PIP2, 10 μM ATP; 'Greater than 10 μM' and 'Greater than 1 μM to 10 μM'; read-out: PI3K β IC50
Excerpt: as §1
as §2, with “Purified recombinant PI3Kα (catalogue No. 14-602-K), PI3Kβ (catalogue No. 14-603-K), PI3Kγ (catalogue No. 14-558-K) and PI3Kδ (catalogue No. 14-604-K) were obtained from Millipore Corporation.” left out, “The concentration necessary to achieve inhibition of enzyme activity by 50% (IC50) was calculated using concentrations ranging from 20 μM to 0.1 nM (12-point curve).” left out

Balb/c splenic B cells = experiment: B cell activation and proliferation assay (Alamar Blue); format: cell-based; conditions: Mus musculus
Protocol: The ability of one or more subject compounds to inhibit B cell activation and proliferation is determined according to standard procedures known in the art. For example, an in vitro cellular proliferation assay is established that measures the metabolic activity of live cells. The assay is performed in a 96 well microtiter plate using Alamar Blue reduction. Balb/c splenic B cells are purified over a Ficoll-Paque™ PLUS gradient followed by magnetic cell separation using a MACS B cell Isolation Kit (Miletenyi). Cells are plated in 90 μl at 50,000 cells/well in B Cell Media (RPMI+10% FBS+Penn/Strep+50 μM bME+5 mM HEPES). A compound provided herein is diluted in B Cell Media and added in a 10 μl volume. Plates are incubated for 30 min at 37° C. and 5% CO2 (0.2% DMSO final concentration). A 50 μl B cell stimulation cocktail is then added containing either 10 μg/ml LPS or 5 μg/ml F(ab′)2 Donkey anti-mouse […] plus 2 ng/ml recombinant mouse IL4 in B Cell Media. Plates are incubated for 72 hours at 37° C. and 5% CO2. A volume of 15 μL of Alamar Blue reagent is added to each well and plates are incubated for 5 hours at 37° C. and 5% CO2. Alamar Blue fluoresce is read at 560Ex/590Em, and IC50 or EC50 values are calculated using GraphPad Prism 5.

T1 sequence (P48736 whole entry): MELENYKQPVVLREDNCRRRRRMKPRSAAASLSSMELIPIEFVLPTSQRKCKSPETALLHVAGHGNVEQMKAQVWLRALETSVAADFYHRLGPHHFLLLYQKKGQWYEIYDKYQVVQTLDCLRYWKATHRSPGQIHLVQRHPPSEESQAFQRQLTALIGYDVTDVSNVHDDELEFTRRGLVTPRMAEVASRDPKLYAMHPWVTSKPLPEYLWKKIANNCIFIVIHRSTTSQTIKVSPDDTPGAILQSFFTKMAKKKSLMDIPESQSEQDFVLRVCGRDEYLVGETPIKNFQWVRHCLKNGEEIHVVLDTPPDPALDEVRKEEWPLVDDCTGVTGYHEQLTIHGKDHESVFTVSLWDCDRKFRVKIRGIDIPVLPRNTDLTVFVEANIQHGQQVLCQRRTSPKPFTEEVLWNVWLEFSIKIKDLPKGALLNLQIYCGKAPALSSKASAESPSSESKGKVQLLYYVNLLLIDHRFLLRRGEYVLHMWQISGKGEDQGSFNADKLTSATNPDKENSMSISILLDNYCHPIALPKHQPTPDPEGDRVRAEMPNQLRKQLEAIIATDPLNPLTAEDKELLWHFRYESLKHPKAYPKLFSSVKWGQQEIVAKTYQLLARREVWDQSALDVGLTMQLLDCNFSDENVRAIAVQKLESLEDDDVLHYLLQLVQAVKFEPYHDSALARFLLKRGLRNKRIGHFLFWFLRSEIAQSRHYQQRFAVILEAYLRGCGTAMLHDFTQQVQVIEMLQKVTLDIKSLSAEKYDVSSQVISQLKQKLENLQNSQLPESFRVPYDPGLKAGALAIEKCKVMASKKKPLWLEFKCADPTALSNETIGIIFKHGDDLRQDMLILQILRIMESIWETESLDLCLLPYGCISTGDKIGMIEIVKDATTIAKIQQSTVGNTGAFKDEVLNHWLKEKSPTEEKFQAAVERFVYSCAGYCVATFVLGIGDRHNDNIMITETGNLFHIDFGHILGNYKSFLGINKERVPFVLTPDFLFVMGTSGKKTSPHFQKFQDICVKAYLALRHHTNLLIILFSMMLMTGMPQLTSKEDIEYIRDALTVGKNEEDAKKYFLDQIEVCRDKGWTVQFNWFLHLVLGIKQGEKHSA
T2 sequence (P42336 whole entry): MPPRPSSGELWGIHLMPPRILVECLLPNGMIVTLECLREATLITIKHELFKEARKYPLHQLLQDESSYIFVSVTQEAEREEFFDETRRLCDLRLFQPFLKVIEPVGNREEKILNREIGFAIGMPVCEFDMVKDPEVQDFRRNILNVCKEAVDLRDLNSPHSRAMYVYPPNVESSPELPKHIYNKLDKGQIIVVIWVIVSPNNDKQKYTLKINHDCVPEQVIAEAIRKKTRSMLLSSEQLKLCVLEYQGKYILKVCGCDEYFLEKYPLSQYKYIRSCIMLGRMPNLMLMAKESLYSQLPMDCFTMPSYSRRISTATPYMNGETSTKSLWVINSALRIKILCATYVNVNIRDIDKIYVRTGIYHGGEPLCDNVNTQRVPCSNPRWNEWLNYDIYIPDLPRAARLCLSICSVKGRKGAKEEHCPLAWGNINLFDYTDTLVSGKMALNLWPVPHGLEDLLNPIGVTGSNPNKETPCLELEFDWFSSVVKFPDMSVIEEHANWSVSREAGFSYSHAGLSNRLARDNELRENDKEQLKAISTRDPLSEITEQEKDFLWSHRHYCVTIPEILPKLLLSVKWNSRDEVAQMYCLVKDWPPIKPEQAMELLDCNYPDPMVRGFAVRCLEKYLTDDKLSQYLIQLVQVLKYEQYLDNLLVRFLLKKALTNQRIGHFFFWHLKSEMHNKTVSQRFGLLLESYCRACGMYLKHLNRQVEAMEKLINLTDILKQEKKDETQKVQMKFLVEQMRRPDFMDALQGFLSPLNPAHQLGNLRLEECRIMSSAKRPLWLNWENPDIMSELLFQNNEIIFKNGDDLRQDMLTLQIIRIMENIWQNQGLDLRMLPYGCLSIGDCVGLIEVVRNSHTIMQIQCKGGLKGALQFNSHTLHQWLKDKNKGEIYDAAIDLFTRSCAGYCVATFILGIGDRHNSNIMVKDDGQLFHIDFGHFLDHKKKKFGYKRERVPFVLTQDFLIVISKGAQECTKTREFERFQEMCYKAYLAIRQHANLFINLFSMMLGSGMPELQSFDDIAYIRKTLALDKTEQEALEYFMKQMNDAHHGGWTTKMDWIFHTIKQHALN
T2 sequence (P27986 whole entry partner): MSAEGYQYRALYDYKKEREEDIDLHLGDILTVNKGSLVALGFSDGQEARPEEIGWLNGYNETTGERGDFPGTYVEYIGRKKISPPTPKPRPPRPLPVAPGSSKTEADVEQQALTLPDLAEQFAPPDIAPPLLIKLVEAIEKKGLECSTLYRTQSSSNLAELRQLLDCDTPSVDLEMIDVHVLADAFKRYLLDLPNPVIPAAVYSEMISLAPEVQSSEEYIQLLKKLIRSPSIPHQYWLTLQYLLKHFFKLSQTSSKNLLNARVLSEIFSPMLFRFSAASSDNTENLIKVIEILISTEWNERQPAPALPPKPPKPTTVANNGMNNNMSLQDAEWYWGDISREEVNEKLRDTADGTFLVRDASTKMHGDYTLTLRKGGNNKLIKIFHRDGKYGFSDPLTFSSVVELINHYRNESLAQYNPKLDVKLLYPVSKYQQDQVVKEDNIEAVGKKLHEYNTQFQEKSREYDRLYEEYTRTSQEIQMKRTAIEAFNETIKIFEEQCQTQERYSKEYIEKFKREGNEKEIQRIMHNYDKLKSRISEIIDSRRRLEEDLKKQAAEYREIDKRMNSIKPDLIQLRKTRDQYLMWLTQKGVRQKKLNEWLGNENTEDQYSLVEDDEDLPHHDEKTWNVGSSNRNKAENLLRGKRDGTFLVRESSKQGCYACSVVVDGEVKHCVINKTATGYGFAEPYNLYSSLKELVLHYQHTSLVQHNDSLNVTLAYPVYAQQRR
PI3Kβ, sequence (Q8BTI9 whole entry): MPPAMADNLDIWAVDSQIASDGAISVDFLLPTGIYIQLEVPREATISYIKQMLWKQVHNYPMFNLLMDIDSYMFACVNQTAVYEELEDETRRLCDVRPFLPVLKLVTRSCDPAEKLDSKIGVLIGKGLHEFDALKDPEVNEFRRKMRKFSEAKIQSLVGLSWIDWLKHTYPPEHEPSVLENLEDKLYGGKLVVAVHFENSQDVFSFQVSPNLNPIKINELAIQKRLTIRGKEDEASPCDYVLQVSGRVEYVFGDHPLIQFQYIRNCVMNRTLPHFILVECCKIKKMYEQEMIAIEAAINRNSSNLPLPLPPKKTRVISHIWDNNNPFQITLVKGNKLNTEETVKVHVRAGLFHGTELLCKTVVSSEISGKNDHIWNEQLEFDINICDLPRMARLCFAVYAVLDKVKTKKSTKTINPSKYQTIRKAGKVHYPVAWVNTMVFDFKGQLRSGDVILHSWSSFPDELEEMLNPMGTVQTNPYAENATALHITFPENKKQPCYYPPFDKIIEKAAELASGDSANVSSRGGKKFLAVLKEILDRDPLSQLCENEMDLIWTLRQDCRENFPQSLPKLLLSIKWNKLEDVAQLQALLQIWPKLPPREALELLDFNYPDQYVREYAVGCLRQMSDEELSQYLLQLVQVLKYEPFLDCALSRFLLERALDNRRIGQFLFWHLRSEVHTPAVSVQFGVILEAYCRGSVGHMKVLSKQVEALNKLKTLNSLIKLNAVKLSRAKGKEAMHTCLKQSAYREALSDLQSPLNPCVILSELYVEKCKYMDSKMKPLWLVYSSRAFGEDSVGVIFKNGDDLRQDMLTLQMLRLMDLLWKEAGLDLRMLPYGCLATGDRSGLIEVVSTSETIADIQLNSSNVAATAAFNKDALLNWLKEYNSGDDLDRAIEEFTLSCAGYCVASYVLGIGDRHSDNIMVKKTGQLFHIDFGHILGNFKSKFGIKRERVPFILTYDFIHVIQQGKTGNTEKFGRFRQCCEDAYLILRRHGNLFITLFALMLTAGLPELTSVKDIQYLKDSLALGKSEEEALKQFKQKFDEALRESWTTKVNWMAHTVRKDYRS

IC50 (PI3Kγ) [nM]	IC50 (PI3Kα) [nM]	IC50 (PI3Kβ) [nM]	SMILES	EC50 (Balb/c splenic B cells; 1 μM to 100 nM) [nM]	EC50 (Balb/c splenic B cells; 'Less than 100 nM') [nM]
1000 to 10000	1000 to 10000	> 10000	C[C@H](Nc1ncnc2cccnc12)c1cc2cc(F)ccc2c(=O)n1-c1ccccc1 [Compound I-6]	100 to 1000	–
–	1000 to 10000	1000 to 10000	C[C@H](Nc1ncnc2cccnc12)c1cc2ccc(F)cc2c(=O)n1-c1ccccc1 [Compound I-18]	–	< 100
–	1000 to 10000	1000 to 10000	C[C@H](Nc1ncnc2cccnc12)c1cc2cccc(-c3cnn(C)c3)c2c(=O)n1C1CC1 [Compound I-24]	–	< 100
–	1000 to 10000	> 10000	C[C@H](Nc1ncnc2cccnc12)c1cc2cccc(-c3cnn(C)c3)c2c(=O)n1-c1cccc(F)c1 [Compound I-25]	–	< 100
1000 to 10000	–	> 10000	Cc1nsc2cc(C(C)Nc3ncnc4cccnc34)n(-c3ccccc3)c(=O)c12 (stereo not drawn) [Compound I-27]	100 to 1000	–
–	1000 to 10000	> 10000	C[C@H](Nc1nc(N)nc2cccnc12)c1cc2cccc(-c3cnn(C)c3)c2c(=O)n1-c1cccc(F)c1 [Compound I-38]	–	< 100
–	1000 to 10000	> 10000	C[C@H](Nc1ncnc2cccnc12)c1cc2cccc(-c3ccc(N)nc3)c2c(=O)n1-c1ccccc1 [Compound I-43]	–	< 100
–	1000 to 10000	> 10000	COc1ccc(-c2cccc3cc([C@H](C)Nc4ncnc5cccnc45)n(-c4ccccc4)c(=O)c23)cn1 [Compound I-48]	–	< 100
–	1000 to 10000	1000 to 10000	C[C@H](Nc1ccnc2cccnc12)c1cc2cccc(Cl)c2c(=O)n1-c1cccc(F)c1 [Compound I-50]	–	< 100
–	1000 to 10000	1000 to 10000	C[C@H](Nc1ccnc2cccnc12)c1cc2cccc(-c3cnn(C)c3)c2c(=O)n1-c1ccccc1 [Compound I-51]	–	< 100
1000 to 10000	–	> 10000	C[C@H](Nc1c(C#N)cnc2cccnc12)c1cc2cccc(Cl)c2c(=O)n1-c1ccccc1 [Compound I-53]	–	–
1000 to 10000	–	> 10000	C[C@H](Nc1c(C#N)cnc2cccnc12)c1cc2cccc(Cl)c2c(=O)n1-c1cccc(F)c1 [Compound I-54]	–	–
1000 to 10000	–	> 10000	C[C@H](Nc1c(C#N)cnc2cccnc12)c1cc2cccc(-c3cnn(C)c3)c2c(=O)n1-c1ccccc1 [Compound I-55]	–	–
–	1000 to 10000	1000 to 10000	Cc1cccc2cc([C@H](C)Nc3ncnc4cccnc34)n(-c3cccc(F)c3)c(=O)c12 [Compound I-70]	–	< 100
–	1000 to 10000	> 10000	COc1ncc(-c2cccc3cc([C@H](C)Nc4ncnc5cccnc45)n(-c4cccc(F)c4)c(=O)c23)cn1 [Compound I-73]	–	< 100
–	1000 to 10000	1000 to 10000	C[C@H](Nc1nc(N)nc2cccnc12)c1cc2cccc(-c3cncnc3)c2c(=O)n1-c1ccccc1 [Compound I-74]	–	< 100
–	1000 to 10000	1000 to 10000	C[C@H](Nc1nc(N)nc2cccnc12)c1cc2cccc(-c3ccnnc3)c2c(=O)n1-c1ccccc1 [Compound I-79]	–	< 100
–	1000 to 10000	> 10000	C[C@H](Nc1nc(N)nc2cccnc12)c1cc2cccc(-c3ccnnc3)c2c(=O)n1-c1cccc(F)c1 [Compound I-80]	–	< 100
–	1000 to 10000	> 10000	Cc1ncc(-c2cccc3cc([C@H](C)Nc4nc(N)nc5cccnc45)n(-c4cccc(F)c4)c(=O)c23)cn1 [Compound I-84]	–	< 100

IC50 (PI3Kγ) [nM]	IC50 (PI3Kα) [nM]	IC50 (PI3Kβ) [nM]	SMILES	EC50 (Balb/c splenic B cells; 1 μM to 100 nM) [nM]	EC50 (Balb/c splenic B cells; 'Less than 100 nM') [nM]
–	1000 to 10000	1000 to 10000	CNc1nc(N[C@@H](C)c2cc3cccc(Cl)c3c(=O)n2-c2ccccc2)c2ncccc2n1 [Compound I-96]	–	< 100
–	1000 to 10000	1000 to 10000	C[C@H](Nc1ccnc2ccnn12)c1cc2cccc(Cl)c2c(=O)n1-c1cccc(F)c1 [II-4]	–	< 100
–	1000 to 10000	1000 to 10000	C[C@H](Nc1ccnc2ccnn12)c1cc2cccc(-c3cnn(C)c3)c2c(=O)n1-c1ccccc1 [II-5, (S)-8-(1-methyl-1H-pyrazol-4-yl)-2-phenyl-3-(1-(pyrazolo[1,5-a]pyrimidin-7-ylamino)ethyl)isoquinolin-1(2H)-one]	–	< 100
1000 to 10000	1000 to 10000	1000 to 10000	C[C@H](Nc1ccnc2ccnn12)c1cc2cccc(-c3cnn(C)c3)c2c(=O)n1C1CC1 [II-8]	–	–
–	1000 to 10000	> 10000	C[C@H](Nc1ccnc2ccnn12)c1cc2cccc(-c3cnn(C)c3)c2c(=O)n1-c1cccc(F)c1 [II-9]	–	< 100
–	1000 to 10000	> 10000	C[C@H](Nc1ccnn2ccnc12)c1cc2cccc(-c3cnn(C)c3)c2c(=O)n1-c1cccc(F)c1 [II-17]	–	< 100
–	1000 to 10000	1000 to 10000	C[C@H](Nc1ccnn2ccnc12)c1cc2cccc(-c3cnn(C)c3)c2c(=O)n1-c1ccccc1 [II-18]	–	< 100
1000 to 10000	> 10000	1000 to 10000	C[C@H](Nc1ncnc2ccnn12)c1cc2cccc(Cl)c2c(C(=O)N2CCOCC2)n1 [II-44]	–	–
–	1000 to 10000	1000 to 10000	C[C@H](Nc1ccnn2ccnc12)c1cc2cccc(-c3cnn(C)c3)c2c(=O)n1C1CC1 [II-45]	–	< 100
–	1000 to 10000	1000 to 10000	C[C@H](Nc1ncnc2cccnc12)c1cc2cccc(C(F)(F)F)c2c(=O)n1-c1cccc(F)c1 [III-12]	–	< 100
–	1000 to 10000	1000 to 10000	C[C@H](Nc1ccnn2ccnc12)c1cc2cccc(C(F)(F)F)c2c(=O)n1-c1cccc(F)c1 [III-15]	–	< 100
1000 to 10000	–	> 10000	Cc1nc2c(N[C@@H](C)c3cc4cccc(C(F)(F)F)c4c(=O)n3-c3ccccc3)ncnc2s1 [III-26]	–	–
1000 to 10000	–	> 10000	Cc1cn2nccc(N[C@@H](C)c3cc4cccc(C(F)(F)F)c4c(=O)n3-c3ccccc3)c2n1 [III-29]	–	–
1000 to 10000	–	> 10000	C[C@H](Nc1c(C#N)cnc2cccnc12)c1cc2cccc(C(F)(F)F)c2c(=O)n1-c1ccccc1 [III-37]	–	–
1000 to 10000	–	–	C[C@H](Nc1ncnc2[nH]cnc12)c1cc2scc(C(F)(F)F)c2c(=O)n1-c1ccccc1 [III-40]	–	–
1000 to 10000	–	> 10000	C[C@H](Nc1ncnc2cccnc12)c1cc2scc(C(F)(F)F)c2c(=O)n1-c1ccccc1 [III-41]	–	< 100
1000 to 10000	–	> 10000	COc1nc(N[C@@H](C)c2cc3cccc(C(F)(F)F)c3c(=O)n2-c2cccc(F)c2)c2ncccc2n1 [III-43]	–	–
1000 to 10000	–	> 10000	C[C@H](Nc1ncnc(N)n1)c1cc2cccc(Cl)c2c(=O)n1-c1cccc(F)c1 [IV-2]	–	< 100

SMILES	IC50 (PI3Kγ) [nM]	IC50 (PI3Kα) [nM]	IC50 (PI3Kβ) [nM]	EC50 (Balb/c splenic B cells; 1 μM to 100 nM) [nM]	EC50 (Balb/c splenic B cells; 'Less than 100 nM') [nM]
C[C@H](Nc1cc(Cl)nn2ccnc12)c1cc2cccc(C(F)(F)F)c2c(=O)n1-c1cccc(F)c1 [III-14]	1000 to 10000	–	> 10000	–	–
